Results from article PMC10037499, “High-Throughput Screen Reveals the Structure–Activity Relationship of the Antimicrobial Lasso Peptide Ubonodin” (ACS Central Science, 2023).
Where a SMILES comes first, the peptide text is derived from it.

Tests used:
[1] = test system: RNA polymerase (RNAP) in E. coli MC1061; assay: High-throughput growth-based screen with NGS (enrichment value) for RNA polymerase inhibition; type: cell-based; design: key to Experimental observation (enrichment observed in the screen): Dropout: Many variants inhibit RNAP so strongly that they cannot be detected by NGS after IPTG induction (referred to as dropout variants); conditions: for Experimental observation (enrichment observed in the screen): Table S4, variants whose MICs were tested; for Enrichment: case.csv of the DeepLasso code, screen stage and IPTG concentration not stated
Experimental: The single mutant library was analyzed by NGS at multiple stages of sample preparation (Figure 2A) to track its evolution throughout the screen. Specifically, the frequency of each possible aa variant was computed at each stage by summing up counts for each distinct translated sequence and dividing by the total number of counts for all variants (eq S1, SI Methods). Since cells expressing an RNAP-inhibiting ubonodin variant will have growth defects relative to cells with a nontoxic variant, RNAP-inhibiting ubonodin variants are expected to decrease in frequency throughout the screen.
First, the naïve library (digested PCR products) was sequenced. These digested PCR products were cloned into the pUboABC backbone and transformed into a recA^– cloning strain. This plasmid library was sequenced again to capture any changes upon transformation of the library into E. coli. The change between the naïve library and the cloning transformation library was minimal (Figure S6A). This plasmid library was transformed into the screening strain MC1061, and the plasmid from resulting colonies was also sequenced. The library in MC1061 was grown up en masse in liquid culture to mid log phase, and a portion of the culture was plated. These colonies were scraped, then the plasmid was isolated and sequenced. Finally, the liquid culture was induced with IPTG, after which a portion of the culture was plated and the plasmid was isolated and sequenced. It is key to note that all samples from liquid cultures were plated prior to sequencing to ensure that only viable cells were sequenced. […] The rationale for sequencing at these five different stages was the possibility that leaky expression of uboA would affect the frequency of active mutants prior to IPTG induction. Indeed, we observed that the frequency of some uboA mutants dropped as soon as they were transformed into the screening strain MC1061 while the frequency of other mutants climbed (Figure 2B).
The behavior of the point variants (i.e., variants with a single aa substitution) was examined by calculating their enrichment values, the base-2 logarithm of the ratio of the variant’s frequency at a specific step of the screen to the variant’s frequency in the cloning transformation library (eq S3, Figure S6). The most relevant enrichment value for ubonodin activity is the comparison between the post-IPTG library and the cloning transformation library (Figure 2A). […] Many variants inhibit RNAP so strongly that they cannot be detected by NGS after IPTG induction (referred to as dropout variants). […] Variants with a stop codon mutation and variants containing an aa substitution at Tyr9 or Tyr27 (positions conserved in MccJ25 and shown to be crucial for RNAP inhibition, see Figure S7)[26] have positive enrichment values (1.2–1.7), serving as quality control for the screen (Figure 3A). Strikingly, 63% of point variants decreased in frequency, indicating a high tolerance to aa substitution. […] The positions with active variants are Asn11 through Ser24 in the loop and Asp3, Ser5, and Ala7 in the ring.
The single mutant and double mutant libraries were transformed into E. coli MC1061. Colonies were resuspended in media and subcultured into a larger culture. Aliquots of the cultures were sampled prior to and after induction with 10 μM IPTG and 100 μM IPTG and plated. After 16 h of incubation, the colonies were resuspended in media and plasmids were miniprepped.
Samples were PCR amplified with barcoded primers and combined such that double mutant library samples were over-represented compared to single mutant library samples to provide sufficient coverage of the larger double mutant library. Samples were sequenced using an Illumina MiSeq Micro 300nt and an Illumina NovaSeq 6000 Sequencing System. Downstream analysis of the data was conducted with Python, MATLAB, and R.
V to reduce genomic DNA contamination. One fragment was amplified with Xho I For Lib and a […]

[2] = test system: B. cenocepacia AU0756
Experimental: We proceeded to test the antimicrobial activity of the selected variants against two clinical isolates of the Bcc, B. cenocepacia AU0756 and B. cenocepacia AU24362, in broth microdilution assays. […] We revisited these measurements using broth microdilution assays following the Clinical & Laboratory Standards Institute (CLSI) standard.
Broth microdilution assays of the ubonodin variants were conducted using B. cenocepacia AU0756 and B. cenocepacia AU24362 with guidelines provided by the Clinical & Laboratory Standards Institute (CLSI).

[3] = test system: E. coli MC1061; assay: Spot dilution assay of E. coli producing the ubonodin variant from pUboABC; type: cell-based; conditions: biological duplicates; for Inhibits Growth: variant in pUboABC backbone in E. coli MC1061, induction with 100 μM IPTG, ten-fold serial dilutions
Experimental: Cultures of E. coli MC1061 transformed with the appropriate plasmids were grown. Aliquots of the cultures were sampled prior to and after induction with 100 μM IPTG, and 10-fold serial dilutions were plated. […]
All cloning was conducted by PCR amplification (using Q5 polymerase), restriction digestion, ligation, (using T4 DNA ligase), and transformation into chemically competent E. coli XL1-Blue. All cloning with a pUboABC backbone was done by plating transformation mixt ures onto Lysogeny Broth (LB) plates supplemented with 100 μg/mL ampicillin and 0.2% w/v glucose, and colonies were inoculated into LB media supplemented with 100 μ g/mL ampicillin and 0.2% w/v glucose to suppress any leaky expression. Cloning for all other plasmid constructs was done by plating transformation mixtures onto Lysogeny Broth (LB) plates supplemented with 100 μ g/ m L ampicillin, and colonies were inoculated into LB media supplemented with 100 μ g/ m L ampicillin.
Plasmids were extracted using Qiagen QIAprep Spin Miniprep Kit and sequence verified using Sanger sequencing. All primer sequences are listed in Table S7, and all plasmid constructs are […]
pUboABC was cloned by amplifying pWC99 with pQE-80 NheI For and pAT8 Nco I Rev.
The amplicon was ligated into pWC99 digested with Nhe I and Nco I. pUboBC was cloned by digesting pUboABC with Nh e I and Nco I and ligating that fragment into pQE-80 digested with Nhe I and Nco I. pUboABC S5H I16P and pUboABCD S5H I16P were cloned with overlap PCR using pWC99 as the template. One fragment was amplified with pQE-80 EcoRI For and S5H I16P Rev v2 and the second fragment was amplified with S5H I16P For v2 and pQE-80 HindII I Rev. […]
All remaining plasmid constructs were cloned with overlap PCR. One fragment was amplified with Xho I For Lib and a mutagenic reverse primer and the second fragment was amplified with NheI Rev Lib and a mutagenic forward primer. The templates and mutagenic […]
The fragments were joined with a second round of PCR and amplified with XhoI For Lib and NheI Rev Lib. Amplicons were ligated into the appropriate plasmid backbone digested with Xho I and Nhe I-HF. The plasmid backbones […]
The appropriate plasmid was transformed into electrocompetent E. coli MC1061, plated onto LB plates supplemented with 100 μ g/ m L ampicillin and 0.2% w/v glucose, and incubated at 30 °C for 16 hours. Colonies were inoculated into LB media supplemented with 100 μ g/ m L ampicillin and 0.2% w/v glucose and grown at 37 °C for 16 hours. These cultures were sub-cultured to an OD600 of 0.02 in 50 mL of LB media supplemented with 100 μg/mL ampicillin in a 250 mL flask. Once the OD600 reached 0.3, a 1 mL aliquot was sampled immediately prior to inducing the cultures with 100 μM isopropyl β-D-1-thiogalactopyranoside (IPTG). The aliquot was washed with Phosphate-Buffered Saline (PBS) two times and ten-fold serial dilutions were spotted onto LB plates supplemented with 100 μ g/ m L ampicillin and 0.2% w/v glucose. For each following timepoint, a 1 mL sample of each culture was withdrawn, washed with PBS two times, and ten- […]
fold serial dilutions were spotted onto LB plates supplemented with 100 μ g/m L ampicillin and 0.2% w/v glucose. Plates were incubated for 16 hours at 37 °C before imaging. […]
250 mL flask. Ten-fold serial dilutions of the culture were plated onto LB plates supplemented with 100 μ g/ m L ampicillin and 0.2% w/v glucose. The cultures were then grown at 37 °C, and once the OD600 reached 0.3, a 1 mL sample of the culture was withdrawn immediately before the cultures were induced with 10 μM or 100 μM IPTG and returned to grow longer. […]
All plates were incubated at 37 °C for 16 hours, after which the number of colonies was counted. Three biological replicates of this assay were done.
Co-Culture of E. coli MC1061 pUboABC and E. coli MC1061 pUboBC pUboABC (0.9 ng) and pUboBC (0.1 ng) were transformed into electrocompetent E. coli MC1061 with a one- hour outgrowth at 37 °C in LB media supplemented with 0.2% w/v glucose. […]

| Compound | Experimental observation (enrichment observed in the screen) [1] | B. cenocepacia AU0756 MIC [2] | Time after induction at which the toxic effect was observed ([3]; pUboABC backbone) | Inhibits Growth [3] | Enrichment [1] |
| --- | --- | --- | --- | --- | --- |
| CC[C@H](C)[C@@H]1NC(=O)[C@H](CO)NC(=O)CNC(=O)[C@H](CC(=O)O)NC(=O)CNC(=O)CNC(=O)CC[C@@H](C(=O)N[C@@H](Cc2ccc(O)cc2)C(=O)N[C@@H](Cc2ccccc2)C(=O)N[C@@H](CCSC)C(=O)N[C@@H](CCCNC(=N)N)C(=O)N2CCC[C@H]2C(=O)N[C@@H](CCSC)C(=O)N[C@@H](Cc2c[nH]cn2)C(=O)N[C@H](C(=O)N[C@@H](Cc2c[nH]cn2)C(=O)N[C@@H](CC(=O)O)C(=O)N[C@@H](Cc2c[nH]c3ccccc23)C(=O)N[C@@H](CCC(N)=O)C(=O)N[C@H](C(=O)N[C@@H](CCSC)C(=O)N[C@@H](CC(=O)O)C(=O)N[C@@H](CO)C(=O)NCC(=O)N[C@@H](Cc2ccc(O)cc2)C(=O)N[C@@H](Cc2ccc(O)cc2)C(=O)NCC(=O)O)[C@@H](C)CC)[C@@H](C)CC)NC(=O)CNC1=O [A7G N11M] (HELM PEPTIDE1{G.G.D.G.S.I.G.E.Y.F.M.R.P.M.H.I.H.D.W.Q.I.M.D.S.G.Y.Y.G}$PEPTIDE1,PEPTIDE1,1:R1-8:R3$$$V2.0) | Dropout | >8 µM | 6 h | Yes | – |
| GGDGSIAEYFNRPMHIHEWQIM*SGYYG | – | – | – | – | 4.458 |
| GGDGSI*EYFNRPMVIHDWQIMDSGMYG | – | – | – | – | 4.338 |
| CC[C@H](C)[C@H](NC(=O)[C@H](CCC(N)=O)NC(=O)[C@H](Cc1c[nH]c2ccccc12)NC(=O)[C@H](CC(=O)O)NC(=O)[C@H](Cc1c[nH]cn1)NC(=O)[C@H](C)NC(=O)[C@H](Cc1c[nH]cn1)NC(=O)[C@H](CCSC)NC(=O)[C@@H]1CCCN1C(=O)[C@H](CCCNC(=N)N)NC(=O)[C@H](CC(N)=O)NC(=O)[C@H](Cc1ccccc1)NC(=O)[C@H](Cc1ccc(O)cc1)NC(=O)[C@@H]1CCC(=O)NCC(=O)NCC(=O)N[C@@H](CC(=O)O)C(=O)NCC(=O)N[C@@H](CO)C(=O)N[C@@H]([C@@H](C)CC)C(=O)N2CCC[C@H]2C(=O)N1)C(=O)N[C@@H](CCSC)C(=O)N[C@@H](CC(=O)O)C(=O)N[C@@H](CO)C(=O)NCC(=O)N[C@@H](Cc1ccc(O)cc1)C(=O)N[C@@H](Cc1ccc(O)cc1)C(=O)NCC(=O)O [A7P I16A] (HELM PEPTIDE1{G.G.D.G.S.I.P.E.Y.F.N.R.P.M.H.A.H.D.W.Q.I.M.D.S.G.Y.Y.G}$PEPTIDE1,PEPTIDE1,1:R1-8:R3$$$V2.0) | Dropout | 4 to 8 µM | – | Yes | – |
| CC[C@H](C)[C@@H]1NC(=O)[C@H](CO)NC(=O)CNC(=O)[C@H](CC(=O)O)NC(=O)CNC(=O)CNC(=O)CC[C@@H](C(=O)N[C@@H](Cc2ccc(O)cc2)C(=O)N[C@@H](Cc2ccccc2)C(=O)N[C@@H](CC(N)=O)C(=O)N[C@@H](CCCNC(=N)N)C(=O)N2CCC[C@H]2C(=O)N[C@@H](CCSC)C(=O)N[C@@H](Cc2c[nH]cn2)C(=O)N[C@@H](CCC(=O)O)C(=O)N[C@@H](Cc2c[nH]cn2)C(=O)N[C@@H](CC(=O)O)C(=O)N[C@@H](Cc2c[nH]c3ccccc23)C(=O)N[C@@H](CCC(N)=O)C(=O)N[C@H](C(=O)N[C@@H](CCSC)C(=O)N[C@@H](CC(=O)O)C(=O)N[C@@H](CO)C(=O)NCC(=O)N[C@@H](Cc2ccc(O)cc2)C(=O)N[C@@H](Cc2ccc(O)cc2)C(=O)NCC(=O)O)[C@@H](C)CC)NC(=O)[C@H](C)NC1=O [I16E] (HELM PEPTIDE1{G.G.D.G.S.I.A.E.Y.F.N.R.P.M.H.E.H.D.W.Q.I.M.D.S.G.Y.Y.G}$PEPTIDE1,PEPTIDE1,1:R1-8:R3$$$V2.0) | -7.5 | 0.5 to 1 µM | – | Yes | – |
